Test results: US20080119530A1, “Method for treatment and prevention of ultraviolet light induced skin pathologies” (priority 2006, published 2008)

Legend:
Akt = Akt activity by phosphorylation on immunoblot in keratinocytes; type: cell-based, mouse; conditions: sham-irradiated keratinocytes and 30 minutes post-UV
Description: Immunoblotting. Flash frozen skin was ground with a mortar and pestle on dry ice, homogenized in lysis buffer containing 10 mM Tris (pH 7.4), 150 mM NaCl, 10% glycerol, 1% Triton X-100, 1 mM EDTA, Complete Protease Inhibitor Cocktail (Roche, Germany), 1 mM Na3V O4, 1.5 μM EGTA, and 10 μM NaF. Protein was quantified using the Coomassie Brilliant Blue G-250 protein assay (Bio-Rad, Hercules, Calif.). The evenness of loading and transfer was determined by staining with Ponceau S and by actin immunoblotting. […]
Cell culture. […] Transfection efficiency was quantified by determining the proportion of the cells that incorporated the fluorescent Cy3-conjugated siRNA or GFP one day post-transfection. […]

keratinocytes = test: Apoptosis in keratinocytes (ssDNA Apoptosis ELISA); type: cell-based, mouse
Description: Cell culture. […] Keratinocytes were transfected with Erbb2-targeted siRNA (32), Stealth RNAi Negative Control LO GC (Invitrogen, Carlsbad, Calif.), Cy3-conjugated Label IT RNAi Delivery Control (Mirus, Madison, Wis.) or sham transfection with TransIT-siQUEST Transfection Reagent (Mirus, Madison, Wis.). Plasmids with Cdc25a (Hassepass et al. 2003a) and EGFP (enhanced green fluorescent protein) cDNA were cotransfected with Lipofectamine Transfection Reagent (Invitrogen, Carlsbad, Calif.). Transfection efficiency was quantified by determining the proportion of the cells that incorporated the fluorescent Cy3-conjugated siRNA or GFP one day post-transfection. Keratinocytes homozygous for the Erbb2 loxP mutation were infected with Cre recombinase-expressing or empty adenoviral vectors in polybrene (Sigma).
Proliferation and apoptosis assays. Proliferation, survival and apoptosis were quantified in three replicate experiments. BrdU uptake was measured by a chemiluminescenit BrdU Cell Proliferation ELISA (Roche, Germany). Survival was quantified using 4-methylumbelliferyl heptanoate (MUH, Sigma, St. Louis, Mo.) degradation product fluorescence (ex: 360 nm, em:465 nm) as a marker for cell viability based on the method by Dotsika et al.^27 Cells were incubated in 100 μg/ml MUH in PBS for 30 minutes at 37° C. MUH fluorescence from wells lacking cells was subtracted from all samples. Apoptosis was measured using an ssDNA Apoptosis ELISA kit (Chemicon, Temecula, Calif.).
To investigate the role of Erbb2 in apoptosis following UV exposure, keratinocyte survival was measured in AG825-treated or Erbb2 siRNA-transfected cells and controls. As expected, apoptosis increased in all groups after UV exposure, as detected by ssDNA quantification.

Abl = Abl (Homo sapiens, UniProt P00519)
Abl, sequence (P00519 whole entry, species assumed): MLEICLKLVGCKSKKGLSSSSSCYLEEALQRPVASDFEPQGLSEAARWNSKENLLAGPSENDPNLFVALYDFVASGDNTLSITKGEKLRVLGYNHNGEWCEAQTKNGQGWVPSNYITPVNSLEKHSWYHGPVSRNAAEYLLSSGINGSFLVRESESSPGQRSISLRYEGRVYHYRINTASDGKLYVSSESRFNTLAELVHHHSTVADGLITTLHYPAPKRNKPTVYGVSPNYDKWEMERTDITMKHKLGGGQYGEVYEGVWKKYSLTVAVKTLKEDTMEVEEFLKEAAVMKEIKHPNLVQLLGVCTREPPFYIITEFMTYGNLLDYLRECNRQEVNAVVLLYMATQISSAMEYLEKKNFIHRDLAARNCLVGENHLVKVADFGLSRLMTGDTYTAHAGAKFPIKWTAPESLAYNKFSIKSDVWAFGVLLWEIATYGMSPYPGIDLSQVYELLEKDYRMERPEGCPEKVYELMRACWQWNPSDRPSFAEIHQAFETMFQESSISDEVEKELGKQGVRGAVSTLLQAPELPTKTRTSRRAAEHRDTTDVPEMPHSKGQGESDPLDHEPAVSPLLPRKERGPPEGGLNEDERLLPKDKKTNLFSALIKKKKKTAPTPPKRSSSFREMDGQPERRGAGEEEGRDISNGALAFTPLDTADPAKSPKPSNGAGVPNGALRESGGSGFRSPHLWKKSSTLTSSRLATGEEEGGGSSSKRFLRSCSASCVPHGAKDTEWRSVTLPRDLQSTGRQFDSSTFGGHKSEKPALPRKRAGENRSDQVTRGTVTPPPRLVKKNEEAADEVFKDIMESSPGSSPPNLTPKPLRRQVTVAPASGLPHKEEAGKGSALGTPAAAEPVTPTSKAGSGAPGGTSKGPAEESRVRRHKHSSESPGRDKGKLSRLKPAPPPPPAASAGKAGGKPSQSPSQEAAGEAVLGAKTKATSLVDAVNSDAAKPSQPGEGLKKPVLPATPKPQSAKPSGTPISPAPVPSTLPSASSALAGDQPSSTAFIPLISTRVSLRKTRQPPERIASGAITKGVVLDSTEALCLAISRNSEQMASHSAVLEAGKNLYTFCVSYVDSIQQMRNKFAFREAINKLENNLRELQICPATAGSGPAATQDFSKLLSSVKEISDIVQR

COc1cc(/C=C(\C#N)C(N)=O)cc(CSc2nc3ccccc3s2)c1O [AG825]
Akt activity, measured by its phosphorylation on immunoblot (Akt): reduced
ssDNA (apoptosis), compared with DMSO-treated keratinocytes (keratinocytes; between 6 and 12 h post-UV): similarly increased
apoptosis compared to DMSO-treated cells (keratinocytes; by 24 h after UV exposure): significantly increased
apoptosis after UV in vitro (keratinocytes; extent varies with the assay): small increase
fold higher IC50 for Abl than for Erbb2 (Abl): more than 100 fold
